Test results published in patent US20100094001A1, “C[…]-IMPROVED CH[…] DERIVATIVE AND PROCESS FOR PRODUCING SAME” (Eisai R&D Management Co., Ltd., priority 2007, published 2010).

Experiment: Stability experiment for the addition of tri-n-butylamine: sealed storage at 40-50° C., content (purity) by 1H-NMR
Type: physicochemical
Procedure: From the point of view of securing storage stability, for the amount of the first tertiary amine added, at least 2.0 mol % is added based on Compound (6), preferably at least 3.0 mol %, more preferably at least 4.0 mol %, and even more preferably at least 5.0 mol %. Note that evaluation of storage stability can be carried out by calculation of peak area derived from Compound (6) by gas chromatography or high performance liquid chromatography or calculation of integration value by 1H-NMR or P-NMR measurement before and after storage.
Potassium di-tert-butyl phosphate (6 g), dipotassium hydrogenphosphate (16.6 g), tetrabutylammonium hydrogen sulfate (0.81 g), tert-butyl methyl ether (28 mL) and water (21 mL) were added in a 100 mL two-neck round bottom flask equipped with a thermometer, and stirred under cooling with a water bath. At an internal temperature of 21° C., a solution of chloromethyl chlorosulfonate (5.88 g) dissolved in tert-butyl methyl ether (5.88 mL) was added dropwise over two hours at an internal temperature of 25° C. or lower. After termination of the drop wise addition, the solution was stirred for two hours, water (21 mL) and tert-butyl methyl ether (28 mL) were added thereto, the lower layer was separated and the organic layer was washed with an aqueous solution of 2M dipotassium hydrogen phosphate (21 mL). After washing twice with water (21 mL), bath temperature was set to 35° C., and the solution was concentrated under a reduced pressure to obtain 5.38 g of the title compound (yield: 86%). […]
As a result, contents (purity) of respectively 92% and 96% prior to storage were 89% and 70% after sealed storage at 40° C. for 12 hours and further at 50° C. for 12 hours, and were 87% and 0% (completely degraded) after sealed storage further at 50° C. for 10 hours, such that the one added with tri-n-butylamine was stable. The content (purity) was calculated by 1H-NMR measurements with 4-thiomethyl acetophenone as internal standard substance.

CC(C)(C)OP(=O)(OCCl)OC(C)(C)C [Not added, di-tert-butyl chloromethyl phosphate]
Content (%) (Initial (prior to storage)): 96%
Content (%) (Sealed storage at 40° C. for 12 hours then further at 50° C. for 12 hours): 70%
Content (%) (Sealed storage further at 50° C. for 10 hours (after 40° C. 12 hours and 50° C. 12 hours)): 0%
